# Reference: US20220226473A1, “Nucleic acid nanocarrier drug and preparation method thereof, pharmaceutical composition and application thereof” (BAI YAO ZHI DA (BEIJING) NANOBIO TECHNOLOGY CO., LTD., priority 2018, published 2022)
# Where two headings read alike, the source gives them in different places.
# Key:
# [1] = tested on: MCF-7 cells; experiment: Cytotoxicity of RNAh-Bio-670-THP and RNAh-Bio-670-DNR nanoparticles, CTG; assay type: cell-based, human; conditions: MCF-7, 72 h, 200 nM
# Protocol: 3) Diluting a sample to be tested with the culture medium on the next day, respectively adding 200 nM to each sample, herein each sample has 4 replicate wells for replication.
# Samples to be tested: small molecular drug THP and RNAh-Bio-670-THP nanoparticles;
# 1) Except that it is the MCF-7 cells, the rest are the same as (III).
# [2] = tested on: MCF-7 cells; experiment: Cytotoxicity of DNAh-Bio-EGFRapt-Cy5-EPB nanoparticles, CellTiter 96 AQueous One Solution; assay type: cell-based, human
# From the text: GraphPad Prism5.0 software is used to process data graphically. […] A calculation formula of the cell survival rate is as follows, the IC50 may be automatically calculated in the GraphPad Prism 5.0. […]
# [3] = tested on: NCI-H1975 cells; experiment: as above; assay type: cell-based
# Protocol: GraphPad Prism5.0 software is used to process data graphically. In order to calculate the IC50, “W”-shaped non-linear regression analysis is performed on the data to match a suitable dosage-effect curve. A calculation formula of the cell survival rate is as follows, the IC50 may be automatically calculated in the GraphPad Prism 5.0.
# [4] = tested on: HL60 cells; experiment: Cytotoxicity of RNAh-Bio-670-EPB nanoparticles, CellTiter-Glo; assay type: cell-based
# Protocol: Preparing a freshly prepared reagent into a corresponding volume container, and adding PBS to be quantified to 10 μM.
# Cells are cultured at 37 DEG C. and 5% CO2 in a corresponding basal medium in which 10% FBS and 1% PS are respectively added. The cell density used in the experiment is above 80%. The cells are collected, and centrifuged at 1000 rpm for 4 minutes, the medium is resuspended, the cell concentration is adjusted, and it is added to the 96-well plate in a volume of 3000 cells per 50 μL, and each group has 3 replicate wells.
# After 24 hours, the compound solution is transferred to each well by 50 μL/well.
# The above cells after administration are cultured for 72 hours under a condition of 37 DEG C and 5% CO2.
# The well plate is brought to a room temperature in advance and stands for 30 minutes, 100 μL of a CellTiter-Glo® reagent is added to each well of the well plate and mixed for 2 minutes on a shaker to promote cell lysis. The Perkin Elmer Envision 2104 Multilabel Reader is used to read values and the values are recorded.
# The acquired experiment data is analyzed and processed by using excel software, and GraphPad Prism 5 software is used for curve fitting analysis.
# [5] = tested on: BXPC3 cells; experiment: Cytotoxicity of RNAh-Bio-670-gemcitabine nanoparticles; assay type: cell-based; conditions: Homo sapiens, BXPC-3
# From the text: I. Samples to be tested: small molecular drug gemcitabine and […] nanoparticles
# [6] = tested on: SH-SY5Y cells; experiment: Cytotoxicity in SH-SY5Y cells, CellTiter-Glo (Embodiment 8); assay type: cell-based
# Protocol: (1) Using the RPMI1640+10% FBS+1% PS medium to culture the SH-SY5Y cells at 37 DEG C and 5% CO2.
# (2) Collecting the cells, centrifuging at 800 rpm for 5 minutes, resuspending the medium, adjusting the cell concentration, and adding to the 96-well plate in a volume of 5000 cells per 90 μL.
# (3) Diluting a sample to be tested with the culture medium on the next day, respectively adding 200 nM to each sample, herein each sample has 4 replicate wells for replication.
# (4) After being cultured for 72 hours, adding 100 μL of the CTG reagent to each well, shaking for 2 minutes, and standing at the room temperature for 10 minutes, herein a whole process is protected from light.
# (5) Finally using Soft Max Pro5 software to read.
# [7] = tested on: MOLT4 cells; experiment: Cytotoxicity of RNAh-Bio-670-MTX nanoparticles, CTG; assay type: cell-based, human
# Protocol: 1) Using the RPMI1640+10% FBS+1% PS medium to culture the MOLT4 cells at 37 DEG C. and 5% CO2.
# 2) Collecting the cells, centrifuging at 800 rpm for 5 minutes, resuspending the medium, adjusting the cell concentration, and adding to the 96-we plate in a volume of 5000 cells per 90 μL. […]
# 4) After being cultured for 72 hours, adding 100 μL of the CTG reagent to each well, shaking for 2 minutes, and standing at the room temperature for 10 minutes, herein a whole process is protected from light.
# 5) Finally using Soft Max Pro5 software to read.
# [8] = tested on: SKOV3 cells; experiment: Cytotoxicity of DNAh-Biotin-EGFRapt-Cy5-THP nanoparticles; assay type: cell-based, human
# Protocol: (§1) 2) adjusting the cell density to 2.22×10^4/mL with a growth medium:
# (§2) 3) planting 90 μL/well of cell suspension into the 96-well plate, herein the number of cells per well in the plate is 2000;
# (§3) 4) placing the planted cell plate in the incubator at 37 DEG C. and incubating overnight;
# (§4) 5) performing 3.16-fold gradient dilution on the compound at 9 concentration points;
# (§5) 6) taking out the cell culture plate, and adding 10 μL/well of 10× concentration drug working solution to the corresponding wells of the cell culture plate, herein three replicate holes are made for each concentration, and the final drug action concentration is shown in the table below.
# (§6) 7) placing the cell culture plate in the incubator and continuously incubating for 96 hours;
# (§7) 8) placing the CellTiter 96@D AQueous One Solution reagent at the room temperature and thawing for 90 minutes or thawing in a water bath at 37 DEG C., and then equilibrating at the room temperature for 30 minutes;
# (§8) 9) adding 20 μL/well of the CellTiter 96® AQueous One Solution reagent to the cell culture plate;
# (§9) 10) placing the cell culture plate in the incubator at 37 DEG C. and continuously incubating for 3 hours;
# (§10) 11) using the microplate reader to read a OD490 value of each well in the cell plate; and
# (§11) 12) data processing and analysis.
# (§12) GraphPad Prism5.0 software is used to process data graphically. In order to calculate the IC50, […] non-linear regression analysis is performed on the data to match a suitable dosage-effect curve. A calculation formula of the cell survival rate is as follows, the IC50 may be automatically calculated in the GraphPad Prism 5.0.
# (§13) Cell survival rate (%)=(ODtest well−ODblank control)/(ODnegative control−ODblank control)×100%.
# (§14) II. Experiment Device and Method Same as (II)
# [9] = tested on: SGC-7901 cells; experiment: as above; assay type: cell-based, human
# Protocol: as §1, §2, §3, §4, §5, §6, §7, §8, §9, §10, §11, §12, §13, §14
# [10] = tested on: SH-SY5Y cells; experiment: Cytotoxicity of RNAh-Biotin-quasar670-aspirin nanoparticles, CTG kit; assay type: cell-based
# Protocol: Experiment purpose: an effect of a compound on proliferation of a target tumor cell line is researched.
# Experiment design: the compound is diluted in 8 concentration gradients and sequentially added to the target tumor cell line and incubated for 72 hours, the CTG kit is used to detect the effect of the compound on the cell proliferation.
# [11] = tested on: SGC7901 cells; experiment: Cytotoxicity of RNAh-Biotin-quasar670-hdcp nanoparticles; assay type: cell-based
# [12] = tested on: HepG2 cells; experiment: Cytotoxicity of RNAh-Biotin-quasar670-flu nanoparticles; assay type: cell-based
# Protocol: I. Samples to be tested: small molecular […] chemical drug and RNAh-Biotin-quasar670-flu nanoparticles.
# In order to further determine that the RNA nanoparticles without carrying the […] have no apparent cytotoxicity to the HepG2 cells, the inventor further designs a toxicity experiment of the RNAh-Biotin-FAM (FAM is a fluorescent marker), a targeted fluorescent carrier, to the HepG2 cells (a drug administration gradient in the experiment is as follows: 100 μM, 31.6 μM, 10 μM, 3.16 μM, 1 μM, 316 nM, 100 nM, 31.6 nM, 10 nM, and 0 (10% PBS)), the results thereof are shown in Table 134 and FIG. 95.
# [13] = highest administration concentration 10 μM
# [14] = administration concentration 5 μM
structure (smiles),measurement,setting,value
COc1cccc2c1C(=O)c1c(O)c3c(c(O)c1C2=O)C[C@@](O)(C(C)=O)C[C@@H]3O[C@H]1C[C@H](N)[C@H](O)[C@H](C)O1 [Daunorubicin (DNR)],cell survival rate (%),[1],17.33%
"COc1cccc2c1C(=O)c1c(O)c3c(c(O)c1C2=O)C[C@@](O)(C(=O)CO)C[C@@H]3O[C@H]1C[C@H](N)[C@@H](O)[C@H](C)O1 [EPB, epirubicin]",toxicity to MCF-7 cells,[2]; 96 hours,toxic to the MCF-7 cells
same,IC50,"[2]; Homo sapiens, MCF7, MCF-7, 96 hours",0.0847 µM
same,toxicity to NCI-H1975 cells,[3]; 96 hours,toxic to the NCI-H1975 cells
same,IC50,"[3]; Homo sapiens, NCI-H1975, 96 hours",0.0306 µM
same,IC50,"[4]; Homo sapiens, HL-60, 72 hours, read-out: IC50, HL60 cell proliferation",0.0698 µM
same,inhibition at 5 µM,"[4]; Homo sapiens, HL-60, concentration 5 μM, 72 hours, read-out: inhibition rate on HL60 cells",99.2%
Nc1ccn([C@@H]2O[C@H](CO)[C@@H](O)C2(F)F)c(=O)n1 [gemcitabine],IC50,"[5]; BXPC3, 72 h, read-out: IC50",0.0342 µM
same,inhibition at 5 µM,"[5]; administration concentration 5 μM, read-out: cell inhibition rate, BxPC3 cells",83%
same,IC50,"[5]; read-out: IC50, BxPC3 cell proliferation",0.0341 µM
COc1cccc2c1C(=O)c1c(O)c3c(c(O)c1C2=O)C[C@@](O)(C(=O)CO)C[C@@H]3O[C@H]1C[C@H](N)[C@@H](O)[C@H](C)O1 [Epirubicin (EPB)],IC50,"[4]; HL60, treatment time 72 h, CellTiter-Glo, read-out: IC50",0.301 µM
"Nc1c2c(nc3ccccc13)CCCC2 [Tacrine, tacrine]",cell proliferation rate (%),"[6]; 200 nM, 72 h",39.75%
CN(Cc1cnc2nc(N)nc(N)c2n1)c1ccc(C(=O)N[C@@H](CCC(=O)O)C(=O)O)cc1 [Methotrexate (MTX)],cell survival rate (%),"[7]; MOLT-4, 72 h, 200 nM",2.88%
COc1cccc2c1C(=O)c1c(O)c3c(c(O)c1C2=O)C[C@@](O)(C(=O)CO)C[C@@H]3O[C@H]1C[C@H](N)[C@H](O[C@@H]2CCCCO2)[C@H](C)O1 [Pirarubicin (THP)],cell survival rate (%),[1],13.85%
"COc1cccc2c1C(=O)c1c(O)c3c(c(O)c1C2=O)C[C@@](O)(C(=O)CO)C[C@@H]3O[C@H]1C[C@H](N)[C@H](O[C@@H]2CCCCO2)[C@H](C)O1 [THP, pirarubicin]",toxicity to SKOV3 cells,[8],toxic to the SKOV3 cells
same,IC50,"[8]; Homo sapiens, SK-OV-3, SKOV3",0.0237 µM
same,toxicity to SGC-7901 cells,[9],toxic to the SGC-7901 cells
same,IC50,"[9]; Homo sapiens, SGC-7901",0.0274 µM
N.N.[Cl][Pt][Cl] [Cisplatin],IC50,[6]; highest administration concentration 5 μM,0.51 µM
same,inhibition rate to the MOLT4 cell proliferation,[7]; maximum administration concentration 5 μm,99.94%
same,inhibition rate to the HL60 cells,[4]; [13],99.96%
same,inhibition rate to the SH-SY5Y cells,[10]; [13],99.81%
CC[C@@]1(O)C(=O)OCc2c1cc1n(c2=O)Cc2cc3cc(O)ccc3nc2-1 [10-hydroxycamptothecin],Cell inhibition rate (%) when administration concentration is 5 μM,"[11]; SGC7901, 72 h, 5 μM",75.43%
same,"cell inhibition rate (%), SGC7901 cells",[11]; [14],75.43%
O=c1[nH]cc(F)c(=O)[nH]1 [pentafluorouracil],Cell inhibition rate (%) when administration concentration is 5 μM,"[12]; HepG2, 72 h, 5 μM",39.02%
same,"cell inhibition rate (%), HepG2 cells",[12]; [14],39.02%
CC(=O)Oc1ccccc1C(=O)O [aspirin],IC50,"[10]; Homo sapiens, SH-SY5Y, 72 hours, read-out: IC50, SH-SY5Y cell proliferation",1430 µM
same,inhibition at 5 µM,"[10]; Homo sapiens, SH-SY5Y, administration concentration 5 μM, 72 hours, read-out: cell inhibition rate, SH-SY5Y cells",17.7%
same,IC50,"[10]; Homo sapiens, SH-SY5Y, 72 h, CTG kit, read-out: IC50",1430 µM
"CN(Cc1cnc2nc(N)nc(N)c2n1)c1ccc(C(=O)N[C@@H](CCC(=O)O)C(=O)O)cc1 [MTX, methotrexate]",effect on proliferation of MOLT4 cells,"[7]; 200 nM, 72 hours",significant inhibitory effect on the proliferation of the MOLT4 cells
